# In patent publication US20260232713A1, “PLECOMACROLIDE DERIVATIVES FOR MHC-I NEF DOWNMODULATION” (priority 2022, published 2026):
# Where two headings read alike, the source gives them in different places.
# Legend:
# in vitro = details: human
# Procedure: (§1) Inhibition of HIV-Nef was measured by assessing its capacity to downmodulate MHC-I HLA-A2 on the surface of primary CD4+ T cells 24-hours after treatment with each compound. V-ATPase inhibition was assessed at the same time point using lysosomal acidification as an indicator of V-ATPase activity. This was measured using a flow cytometric assay that quantified Lysotracker mean fluorescence intensity as previously described (Painter et al., 2020). Cell viability was measured at 24-hour and 72-hour time points using a previously described flow cytometric assay (Painter et al., 2020).
# (§2) Anonymized leukocytes isolated by apheresis were obtained from New York Blood Center and peripheral blood mononuclear cells (PBMCs) were isolated by Ficoll-Paque Plus (17144002; GE Healthcare) centrifugation using SepMate tubes (85450; StemCell Technologies) according to the manufacturers protocol. […] Then, 20-24 hours post-PHA activation, 15 mL of R10/PHA medium is removed and replaced with 5 mL of R10+100u/mL Recombinant Human IL-2 (202|L010; R&D Systems). 48 hours after IL-2 stimulation, primary CD4^+ T cells were infected via spinoculation with previously described HIV ΔGPE construct.
# (§3) 48 hours after spinoculation, cells were pooled and plated in flat bottom 96-well plate. […] Compounds were thawed at room temperature and diluted in R10 medium to 2× starting concentration.
# (§4) All ΔGPE infected cells were collected 24 hours after treatment.
# (§5) All Mock cells were collected 72 hours after treatment.
# (§6) All statistical analyses were performed using GraphPad Prism software. Curves were generated using GraphPad Prism software using [Inhibitor] vs. response with variable slope (four parameters).
# primary CD4+ T cells = test: in vitro; details: for Viability:Nef (therapeutic window separating Nef IC50 and TC50): ratio TC50 to Nef IC50; for CC50: read-out: Viability (TC50), mock primary CD4+ T cells, 72 hours after treatment
# Procedure: as §1, §2, §3, §4, §5, §6
# V-ATPase = target: T1, V-ATPase (Homo sapiens, UniProt P27449); test: Lysosomal acidification (Lysotracker mean fluorescence intensity) as indicator of V-ATPase activity in primary CD4+ T cells; assay type: cell-based
# T1 construct: endogenous in cells; host or cells: primary CD4+ T cells (HIV ΔGPE infected) from donor PBMCs
# Procedure: as §1, §2, §3, §4, §6
# [1] = Lysotracker Red, ΔGPE infected primary CD4+ T cells, 24 hours after treatment, read-out: Lysotracker (V-ATPase IC50, lysosomal neutralization)
# T1 sequence (P27449 whole entry, looked up): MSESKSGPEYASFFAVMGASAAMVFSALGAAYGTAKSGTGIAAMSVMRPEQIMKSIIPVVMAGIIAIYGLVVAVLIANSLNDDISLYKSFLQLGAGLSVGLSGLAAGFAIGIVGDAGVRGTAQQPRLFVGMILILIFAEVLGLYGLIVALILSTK
IC50 (V-ATPase; [1]) [nM],Compound,CC50 (in vitro) [nM],Viability:Nef (therapeutic window separating Nef IC50 and TC50) (primary CD4+ T cells) [fold],IC50 (V-ATPase) [nM],CC50 (primary CD4+ T cells) [nM],CC50 at 72 h (in vitro) [nM]
–,CO/C1=C\C(C)=C\[C@@H](C)[C@@H](O)[C@@H](C)C/C(C)=C/C=C/[C@H](OC)[C@@H]([C@@H](C)[C@@H](O)[C@H](C)[C@@]2(O)C[C@@H](OC(C)=O)[C@H](C)C(C(C)C)O2)OC1=O (stereo partly drawn) [Compound S9],10,2.4,23,–,–
–,"C/C=C/[C@H]1O[C@@](O)([C@@H](C)[C@H](O)[C@H](C)[C@H]2OC(=O)/C(OC)=C/C(C)=C/[C@@H](C)[C@@H](O)[C@@H](C)[C@@H](O)[C@H](C)C/C(C)=C/C=C/[C@@H]2OC)C[C@@H](O)[C@@H]1C [Compound 7, Concanamycin X]",14,–,38,–,–
> 1000,"CC[C@H]1OC(=O)[C@H](C)C(=O)[C@H](C)[C@@H](O[C@@H]2O[C@H](C)C[C@H](N(C)C)[C@H]2O)[C@@H](C)C[C@@H](C)C(=O)/C=C/[C@H]1C [Compound S33, Narbomycin, reference compound]",–,–,–,–,> 1000
–,CO/C1=C\C(C)=C\[C@@H](C)[C@@H](O)[C@@H](C)C/C(C)=C/C=C/[C@H](OC)[C@@H]([C@@H](C)[C@@H](O)[C@H](C)[C@@]2(O)C[C@@H](OC(=O)c3ccccc3)[C@H](C)[C@@H](C(C)C)O2)OC1=O [Compound S13],130,–,140,–,–
> 1000,"CC[C@H]1OC(=O)[C@H](C)[C@@H](O[C@H]2C[C@@](C)(OC)[C@@H](O)[C@H](C)O2)[C@H](C)[C@@H](O[C@@H]2O[C@H](C)C[C@H](N(C)C)[C@H]2O)[C@](C)(O)C[C@@H](C)C(=O)[C@H](C)[C@@H](O)[C@H]1C [Compound S32, Erythromycin B, reference compound]",–,–,–,–,> 1000
–,"C/C=C/[C@H]1O[C@@](O)([C@@H](C)[C@H](O)[C@H](C)[C@H]2OC(=O)/C(OC)=C/C(C)=C/[C@@H](C)[C@@H](O)[C@@H](CC)[C@@H](O)[C@H](C)C/C(C)=C/C=C/[C@@H]2OC)C[C@@H](O)[C@@H]1C [Compound 6, Concanamycin F]",2.9,–,5.8,–,–
> 1000,"COc1cc2c(O)c3c(c(-c4ccc5c(c4)OCO5)c2cc1OC)C(=O)OC3 [Compound S1, Diphyllin, reference compound]",–,–,–,–,> 1000
–,"CC1=CC[C@H]2O[C@]1(C)O[C@H]([C@H](C)/C=C(C)/C=C/C(O)=C1/C(=O)CNC1=O)[C@H]2C [Tirandamycin C, reference compound]",> 1000,–,> 1000,–,–
> 1000,"CCC1OC(=O)C(C)C(OC2OC(C)CC(N(C)C)C2O)C(C)CC(C)C(=O)C=CC1C (stereo not drawn) [Compound S30, YC-17, reference compound]",–,–,–,–,> 1000
> 1000,"CO[C@H]1/C=C/O[C@@]2(C)Oc3c(C)c(O)c4c(O)c(c(/C=N/N5CCN(C)CC5)c(O)c4c3C2=O)NC(=O)/C(C)=C\C=C\[C@H](C)[C@H](O)[C@@H](C)[C@@H](O)[C@@H](C)[C@H](OC(C)=O)[C@@H]1C [Compound S26, Rifampicin, reference compound]",–,–,–,–,> 1000
–,C=CC(C)C(OC(=O)[C@@H](C)[C@H](O)[C@H](C)[C@H]1OC(=O)/C(OC)=C/C(C)=C/[C@@H](C)[C@@H](O)[C@@H](C)C/C(C)=C/C=C/[C@@H]1OC)C(C)C (stereo partly drawn) [Compound S8],520,–,> 1000,–,–

Compound,IC50 (V-ATPase; [1]) [nM],CC50 (in vitro) [nM],Viability:Nef (therapeutic window separating Nef IC50 and TC50) (primary CD4+ T cells) [fold],IC50 (V-ATPase) [nM],CC50 (primary CD4+ T cells) [nM],CC50 at 72 h (in vitro) [nM]
"23-OH-tylactone [Compound S46, reference compound]",> 1000,–,–,–,> 1000,–
"C/C=C/[C@H]1O[C@@](O)([C@@H](C)[C@H](O)[C@H](C)[C@H]2OC(=O)/C(OC)=C/C(C)=C/[C@@H](C)[C@@H](O)[C@@H](CC)[C@@H](O)[C@H](C)C/C(C)=C/C=C/[C@@H]2OC)C[C@@H](O[C@H]2C[C@@H](O)[C@H](O)[C@@H](C)O2)[C@@H]1C [Compound 5, concanamycin C, reference compound]",3.7,–,2.3,–,1.3,–
"Des-tylactone [Compound S47, reference compound]",> 1000,–,–,–,> 1000,–
